Reference: the NIST ThermoML archive (doi:10.1007/s10765-006-0051-4)
Numbers after ± are expanded uncertainties.

Assay: xn = mol fraction of the nth substance listed
Details: Gas, Oscillating disk viscometry

FC(F)C(F)(F)F [pentafluoroethane] + CCC
Details	viscosity [mPa·s]
373.15 K, 3429.9 kPa, x1 = 0.5011	0.01593 ± 0.00052
373.15 K, 3613.1 kPa, x1 = 0.5011	0.01624 ± 0.00053
373.15 K, 3684.6 kPa, x1 = 0.7503	0.01798 ± 0.00057
373.15 K, 3737.3 kPa, x1 = 0.5011	0.01642 ± 0.00054
373.15 K, 3960.9 kPa, x1 = 0.5011	0.01685 ± 0.00055
373.15 K, 3969.4 kPa, x1 = 0.7503	0.01855 ± 0.00059
373.15 K, 4171.6 kPa, x1 = 0.5011	0.0173 ± 0.00056
373.15 K, 4227.4 kPa, x1 = 0.7503	0.01913 ± 0.0006
373.15 K, 4377 kPa, x1 = 0.5011	0.01777 ± 0.00057
373.15 K, 4411 kPa, x1 = 0.7503	0.01964 ± 0.00061
373.15 K, 4576.1 kPa, x1 = 0.5011	0.01833 ± 0.00058
373.15 K, 4607.7 kPa, x1 = 0.7503	0.02019 ± 0.00062
373.15 K, 4760.3 kPa, x1 = 0.5011	0.01889 ± 0.00059
373.15 K, 4816.2 kPa, x1 = 0.7503	0.02092 ± 0.00064
373.15 K, 4878.3 kPa, x1 = 0.5011	0.01931 ± 0.0006
373.15 K, 5001.8 kPa, x1 = 0.7503	0.0217 ± 0.00066
373.15 K, 5157.2 kPa, x1 = 0.7503	0.02229 ± 0.00067
373.15 K, 5305.9 kPa, x1 = 0.7503	0.02305 ± 0.00069
398.15 K, 101.4 kPa, x1 = 0.5011	0.01447 ± 0.00049
398.15 K, 101.8 kPa, x1 = 0.7503	0.01589 ± 0.00052
398.15 K, 200.6 kPa, x1 = 0.5011	0.01454 ± 0.00049
398.15 K, 262.5 kPa, x1 = 0.7503	0.01594 ± 0.00052
398.15 K, 348.4 kPa, x1 = 0.5011	0.01457 ± 0.00049
398.15 K, 488.6 kPa, x1 = 0.7503	0.01602 ± 0.00053
398.15 K, 541 kPa, x1 = 0.5011	0.01463 ± 0.00049
398.15 K, 733.4 kPa, x1 = 0.7503	0.01606 ± 0.00053
398.15 K, 783.2 kPa, x1 = 0.5011	0.01467 ± 0.0005
398.15 K, 977 kPa, x1 = 0.7503	0.01615 ± 0.00053
398.15 K, 1028.7 kPa, x1 = 0.5011	0.01479 ± 0.0005
398.15 K, 1218.3 kPa, x1 = 0.7503	0.01622 ± 0.00053
398.15 K, 1272.7 kPa, x1 = 0.5011	0.01488 ± 0.0005
398.15 K, 1476.6 kPa, x1 = 0.7503	0.01635 ± 0.00053
398.15 K, 1520 kPa, x1 = 0.5011	0.01497 ± 0.0005
398.15 K, 1712.5 kPa, x1 = 0.7503	0.01647 ± 0.00054
398.15 K, 1748.1 kPa, x1 = 0.5011	0.01511 ± 0.00051
398.15 K, 1944.3 kPa, x1 = 0.7503	0.01666 ± 0.00054
398.15 K, 2037 kPa, x1 = 0.5011	0.01521 ± 0.00051
398.15 K, 2176.8 kPa, x1 = 0.7503	0.01672 ± 0.00054
398.15 K, 2274.1 kPa, x1 = 0.5011	0.0154 ± 0.00051
398.15 K, 2388.9 kPa, x1 = 0.7503	0.01694 ± 0.00055
398.15 K, 2490.3 kPa, x1 = 0.5011	0.01548 ± 0.00052
398.15 K, 2622.4 kPa, x1 = 0.7503	0.01715 ± 0.00055
398.15 K, 2777.4 kPa, x1 = 0.5011	0.01568 ± 0.00052
398.15 K, 2888.9 kPa, x1 = 0.7503	0.01734 ± 0.00056
398.15 K, 3059.7 kPa, x1 = 0.5011	0.01592 ± 0.00052
398.15 K, 3178.3 kPa, x1 = 0.7503	0.01765 ± 0.00056
398.15 K, 3336.8 kPa, x1 = 0.5011	0.01626 ± 0.00053
398.15 K, 3405.7 kPa, x1 = 0.7503	0.01794 ± 0.00057
398.15 K, 3609.9 kPa, x1 = 0.5011	0.0165 ± 0.00054
398.15 K, 3624.9 kPa, x1 = 0.7503	0.01817 ± 0.00058
398.15 K, 3822.7 kPa, x1 = 0.7503	0.01844 ± 0.00058
398.15 K, 3842.8 kPa, x1 = 0.5011	0.01681 ± 0.00055
398.15 K, 3992.9 kPa, x1 = 0.7503	0.01868 ± 0.00059
398.15 K, 4062.4 kPa, x1 = 0.5011	0.01705 ± 0.00055
398.15 K, 4225.4 kPa, x1 = 0.7503	0.01902 ± 0.0006
398.15 K, 4329.6 kPa, x1 = 0.5011	0.01744 ± 0.00056
398.15 K, 4523.9 kPa, x1 = 0.7503	0.01947 ± 0.00061
398.15 K, 4652.3 kPa, x1 = 0.5011	0.01792 ± 0.00057
398.15 K, 4690.7 kPa, x1 = 0.7503	0.01983 ± 0.00062
398.15 K, 4804.6 kPa, x1 = 0.7503	0.02002 ± 0.00062
398.15 K, 5014.1 kPa, x1 = 0.5011	0.01853 ± 0.00059
398.15 K, 5040.9 kPa, x1 = 0.7503	0.02051 ± 0.00063
398.15 K, 5179.6 kPa, x1 = 0.5011	0.01885 ± 0.00059
398.15 K, 5224.5 kPa, x1 = 0.7503	0.02087 ± 0.00064
398.15 K, 5374.2 kPa, x1 = 0.5011	0.01934 ± 0.0006
398.15 K, 5462.4 kPa, x1 = 0.7503	0.0215 ± 0.00065
398.15 K, 5801.5 kPa, x1 = 0.7503	0.0224 ± 0.00068
423.15 K, 101.3 kPa, x1 = 0.5011	0.01525 ± 0.00051
423.15 K, 102.4 kPa, x1 = 0.7503	0.01671 ± 0.00054
423.15 K, 194.6 kPa, x1 = 0.7503	0.01672 ± 0.00054
423.15 K, 200.5 kPa, x1 = 0.5011	0.01531 ± 0.00051
423.15 K, 336.4 kPa, x1 = 0.7503	0.01676 ± 0.00054
423.15 K, 390.6 kPa, x1 = 0.5011	0.01537 ± 0.00051
423.15 K, 570.1 kPa, x1 = 0.7503	0.01682 ± 0.00055
423.15 K, 586.2 kPa, x1 = 0.5011	0.01537 ± 0.00051
423.15 K, 781.9 kPa, x1 = 0.5011	0.01543 ± 0.00051
423.15 K, 812.9 kPa, x1 = 0.7503	0.01692 ± 0.00055
423.15 K, 960.2 kPa, x1 = 0.5011	0.01542 ± 0.00051
423.15 K, 1055.8 kPa, x1 = 0.7503	0.01696 ± 0.00055
423.15 K, 1175.7 kPa, x1 = 0.5011	0.01552 ± 0.00052
423.15 K, 1254.9 kPa, x1 = 0.7503	0.01706 ± 0.00055
423.15 K, 1421.7 kPa, x1 = 0.5011	0.01565 ± 0.00052
423.15 K, 1448.9 kPa, x1 = 0.7503	0.01715 ± 0.00055
423.15 K, 1640 kPa, x1 = 0.7503	0.01724 ± 0.00056
423.15 K, 1658.8 kPa, x1 = 0.5011	0.01573 ± 0.00052
423.15 K, 1898.5 kPa, x1 = 0.5011	0.01584 ± 0.00052
423.15 K, 1906.4 kPa, x1 = 0.7503	0.0174 ± 0.00056
423.15 K, 2128.2 kPa, x1 = 0.7503	0.01752 ± 0.00056
423.15 K, 2142.2 kPa, x1 = 0.5011	0.01598 ± 0.00053
423.15 K, 2375.9 kPa, x1 = 0.7503	0.01766 ± 0.00056
423.15 K, 2381.7 kPa, x1 = 0.5011	0.01613 ± 0.00053
423.15 K, 2575.8 kPa, x1 = 0.5011	0.01623 ± 0.00053
423.15 K, 2591.5 kPa, x1 = 0.7503	0.01781 ± 0.00057
423.15 K, 2903.1 kPa, x1 = 0.5011	0.01643 ± 0.00054
423.15 K, 2919.3 kPa, x1 = 0.7503	0.01808 ± 0.00057
423.15 K, 3148.8 kPa, x1 = 0.5011	0.01663 ± 0.00054
423.15 K, 3160.1 kPa, x1 = 0.7503	0.01824 ± 0.00058
423.15 K, 3289.3 kPa, x1 = 0.7503	0.01836 ± 0.00058
423.15 K, 3412.8 kPa, x1 = 0.5011	0.01685 ± 0.00055
423.15 K, 3552.1 kPa, x1 = 0.7503	0.01859 ± 0.00059
423.15 K, 3651.4 kPa, x1 = 0.5011	0.01705 ± 0.00055
423.15 K, 3813.6 kPa, x1 = 0.7503	0.01886 ± 0.00059
423.15 K, 3903.9 kPa, x1 = 0.5011	0.01729 ± 0.00056
423.15 K, 4061.5 kPa, x1 = 0.7503	0.01916 ± 0.0006
423.15 K, 4138.6 kPa, x1 = 0.5011	0.01756 ± 0.00056
423.15 K, 4298.5 kPa, x1 = 0.7503	0.01944 ± 0.00061
423.15 K, 4492.6 kPa, x1 = 0.7503	0.01962 ± 0.00061
423.15 K, 4533.7 kPa, x1 = 0.5011	0.01792 ± 0.00057
423.15 K, 4689.8 kPa, x1 = 0.7503	0.01988 ± 0.00062
423.15 K, 4822.7 kPa, x1 = 0.5011	0.01823 ± 0.00058
423.15 K, 4902.5 kPa, x1 = 0.7503	0.02023 ± 0.00063
423.15 K, 5070 kPa, x1 = 0.7503	0.02042 ± 0.00063
423.15 K, 5073.7 kPa, x1 = 0.5011	0.01858 ± 0.00059
423.15 K, 5285.8 kPa, x1 = 0.7503	0.02077 ± 0.00064
423.15 K, 5357.3 kPa, x1 = 0.5011	0.01897 ± 0.0006
423.15 K, 5493.3 kPa, x1 = 0.7503	0.02108 ± 0.00064
423.15 K, 5672.2 kPa, x1 = 0.7503	0.02139 ± 0.00065
423.15 K, 5701.1 kPa, x1 = 0.5011	0.01947 ± 0.00061
423.15 K, 5887.3 kPa, x1 = 0.7503	0.02175 ± 0.00066
423.15 K, 6049.1 kPa, x1 = 0.5011	0.02 ± 0.00062
423.15 K, 6270.6 kPa, x1 = 0.5011	0.02038 ± 0.00063
423.15 K, 6494.5 kPa, x1 = 0.5011	0.0208 ± 0.00064
423.15 K, 6710.2 kPa, x1 = 0.5011	0.02129 ± 0.00065
